Among the data in US12162888B2, “Carboxamides as ubiquitin-specific protease inhibitors” (Valo Early Discovery, Inc., priority 2018, dated 2024) are IC50 values, retold here.

The target in this experiment is T1, USP28 (His-tagged USP28-FL-mammalian) (Homo sapiens, UniProt Q96RU2).
T1 construct: Expression of USP28 (1-1077)-TEV-6*His (pTT5 vector) was carried out in Expi293f cells; made in house; host or cells: Expi293F cells (pTT5 vector)
T1 sequence (Q96RU2 1-1077): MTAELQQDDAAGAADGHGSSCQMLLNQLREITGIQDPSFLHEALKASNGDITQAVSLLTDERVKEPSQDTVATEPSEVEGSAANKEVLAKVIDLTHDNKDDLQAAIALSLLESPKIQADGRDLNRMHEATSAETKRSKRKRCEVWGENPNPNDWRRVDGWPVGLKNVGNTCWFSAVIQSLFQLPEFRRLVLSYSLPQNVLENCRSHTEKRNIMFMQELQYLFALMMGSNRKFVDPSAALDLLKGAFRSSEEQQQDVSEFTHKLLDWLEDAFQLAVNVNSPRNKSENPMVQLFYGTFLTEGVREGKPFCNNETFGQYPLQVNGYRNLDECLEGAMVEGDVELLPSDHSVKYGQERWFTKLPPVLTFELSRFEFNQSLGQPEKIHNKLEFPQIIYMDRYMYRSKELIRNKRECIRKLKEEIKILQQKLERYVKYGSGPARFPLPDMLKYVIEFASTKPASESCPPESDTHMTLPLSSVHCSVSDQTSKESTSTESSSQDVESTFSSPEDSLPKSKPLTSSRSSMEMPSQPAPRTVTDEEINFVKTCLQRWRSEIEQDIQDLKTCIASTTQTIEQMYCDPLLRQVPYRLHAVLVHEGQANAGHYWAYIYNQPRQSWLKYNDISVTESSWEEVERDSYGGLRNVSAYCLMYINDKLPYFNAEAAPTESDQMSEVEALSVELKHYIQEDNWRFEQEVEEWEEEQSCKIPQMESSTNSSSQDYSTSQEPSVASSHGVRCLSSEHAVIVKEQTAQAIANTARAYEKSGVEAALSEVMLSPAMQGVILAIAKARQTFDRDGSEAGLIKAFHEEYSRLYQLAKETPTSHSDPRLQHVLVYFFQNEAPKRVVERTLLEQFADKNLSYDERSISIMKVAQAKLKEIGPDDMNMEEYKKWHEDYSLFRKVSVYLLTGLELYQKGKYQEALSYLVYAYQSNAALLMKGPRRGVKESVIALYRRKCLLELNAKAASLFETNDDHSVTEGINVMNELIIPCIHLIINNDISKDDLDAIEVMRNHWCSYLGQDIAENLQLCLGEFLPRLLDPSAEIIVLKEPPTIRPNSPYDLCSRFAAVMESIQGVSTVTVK
In words: Ubiquitin-Rhodamine 110 Assay for USP28 Activity, Example A-1(a). It is filed as biochemical. The gist of the method:
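IC50s were fitted with a 4-parameter logistic to percent inhibition relative to no-enzyme and DMSO controls, using Rhodamine 110 fluorescence (485/535 nm) released from 25 nM Ub-Rh110. The enzyme was Expi293F-expressed USP28-FL-His at […], preincubated 30 min with compound (10-point, 25 μM top) in Tris pH 8.0 buffer containing BGG and Triton X-100. Substrate turnover ran 45 min at room temperature and was stopped with 10 mM citric acid.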

Where [1] appears, read: biochemical IC50 range, Ubiquitin-Rhodamine 110 assay, read-out: USP28 A-1(a).
The mark [2] stands for this setting: Ubiquitin-Rhodamine 110 biochemical assay, read-out: USP28 A-1(a) IC50 range.

Each structure is given as a SMILES string. Where two headings read alike, the source gives them in different places.

Take `CO[C@@H]1CCCN(c2cc(F)c3c(c2)OC[C@H](NC(=O)c2sc4nc(C)ccc4c2N)C3)C[C@@H]1N` [Example 692, 3-amino-N-[(3R)-7-[(3S,4R)-3-amino-4-methoxyazepan-1-yl]-5-fluoro-3,4-dihydro-2H-1-benzopyran-3-yl]-6-methylthieno[2,3-b]pyridine-2-carboxamide]: under setting [1], the IC50 lay within 1 to 50 nM.

For `Cc1ccc2c(N)c(C(=O)N[C@H]3CCc4nc(N5C[C@H](COC(F)F)[C@H](N)C5)ccc4C3)sc2n1` [Example 517, 3-amino-N-[(6S)-2-[(3S,4S)-3-amino-4-[(difluoromethoxy)methyl]pyrrolidin-1-yl]-5,6,7,8-tetrahydroquinolin-6-yl]-6-methylthieno[2,3-b]pyridine-2-carboxamide], the IC50 under setting [2] lay within 50 to 200 nM.

Take `CO[C@H]1CN(c2cc(F)c3c(c2)OC[C@H](NC(=O)c2sc4nc(C)ncc4c2N)C3)C[C@@H]1N` [Example 693, 5-amino-N-[(3R)-7-[(3S,4S)-3-amino-4-methoxypyrrolidin-1-yl]-5-fluoro-3,4-dihydro-2H-1-benzopyran-3-yl]-2-methylthieno[2,3-d]pyrimidine-6-carboxamide]: the IC50 under setting [1] was 200 to 2000 nM.

Turning to `CO[C@@H]1CCCN(c2ccc3c(n2)CC[C@H](NC(=O)c2sc4nc(C)ccc4c2N)C3)C[C@@H]1N` [Example 495, 3-amino-N-[(6S)-2-[(3S,4R)-3-amino-4-methoxyazepan-1-yl]-5,6,7,8-tetrahydroquinolin-6-yl]-6-methylthieno[2,3-b]pyridine-2-carboxamide], the IC50 under setting [2] lay within 50 to 200 nM.

For the compound `Cc1ccc2c(N)c(C(=O)N[C@H]3CCc4nc(N5C[C@@H](COC(F)F)[C@@H](N)C5)ccc4C3)sc2n1` [Example 516, 3-amino-N-[(6S)-2-[(3R,4R)-3-amino-4-[(difluoromethoxy)methyl]pyrrolidin-1-yl]-5,6,7,8-tetrahydroquinolin-6-yl]-6-methylthieno[2,3-b]pyridine-2-carboxamide], the IC50 under setting [2] was in the range of 50 to 200 nM.

`Cc1ccc2c(N)c(C(=O)N[C@H]3COc4nc(N5C[C@@H](CF)[C@H](N)C5)ccc4C3)sc2n1` [Example 542, 3-amino-N-[(3R)-7-[(3S,4R)-3-amino-4-(fluoromethyl)pyrrolidin-1-yl]-2H,3H,4H-pyrano[2,3-b]pyridin-3-yl]-6-methylthieno[2,3-b]pyridine-2-carboxamide]: under setting [1], the IC50 fell in the range of 50 to 200 nM.

On to `CCn1cc(Cl)c2cc(C(=O)N[C@H]3COc4cc(N5C[C@H](OC)[C@@H](N)C5)ccc4C3)nnc21` [Example 696, N-[(3R)-7-[(3S,4S)-3-amino-4-methoxypyrrolidin-1-yl]-3,4-dihydro-2H-1-benzopyran-3-yl]-5-chloro-7-ethyl-7Hpyrrolo[2,3-c]pyridazine-3-carboxamide], for which, under setting [1], the IC50 was in the range of 200 to 2000 nM.

Consider `CO[C@@H]1CN(c2ccc3c(n2)CC[C@H](NC(=O)c2sc4nc(C)cnc4c2N)C3)C[C@@H]1N` [Example 491, 7-amino-N-[(6S)-2-[(3S,4R)-3-amino-4-methoxypyrrolidin-1-yl]-5,6,7,8-tetrahydroquinolin-6-yl]-3-methylthieno[2,3-b]pyrazine-6-carboxamide], for which the IC50 under setting [2] is 50 to 200 nM.

As to `Cc1ccc2c(N)c(C(=O)N[C@H]3CCc4nc(N5C[C@@H](N)CC(F)(F)C5)ccc4C3)sc2n1` [Example 518, 3-amino-N-[(6S)-2-[(5S)-5-amino-3,3-difluoropiperidin-1-yl]-5,6,7,8-tetrahydroquinolin-6-yl]-6-methylthieno[2,3-b]pyridine-2-carboxamide], the IC50 under setting [2] was 1 to 50 nM.

Regarding `Cc1ccc2c(N)c(C(=O)N[C@H]3COc4cc(OC[C@@H]5CNCC5(F)F)ccc4C3)sc2n1` [Example 685, 3-amino-N-[(3R)-7-{[(3S)-4,4-difluoropyrrolidin-3-yl]methoxy}-3,4-dihydro-2H-1-benzopyran-3-yl]-6-methylthieno[2,3-b]pyridine-2-carboxamide], under setting [1], the IC50 is 1 to 50 nM.

For `Cc1ccc2c(N)c(C(=O)N[C@H]3COc4nc(N5C[C@H](N)C6(C5)OCCO6)ccc4C3)sc2n1` [Example 543, 3-amino-N-[(3R)-7-[(9S)-9-amino-1,4-dioxa-7-azaspiro[4.4]nonan-7-yl]-2H,3H,4H-pyrano[2,3-b]pyridin-3-yl]-6-methylthieno[2,3-b]pyridine-2-carboxamide], the IC50 under setting [1] lay in the range of 200 to 2000 nM.

Consider `CN[C@@H]1CN(c2ccc3c(n2)CC[C@H](NC(=O)c2sc4nc(C)cnc4c2N)C3)C[C@@H]1OC` [Example 497, 7-amino-N-[(6S)-2-[(3S,4R)-3-methoxy-4-(methylamino)pyrrolidin-1-yl]-5,6,7,8-tetrahydroquinolin-6-yl]-3-methylthieno[2,3-b]pyrazine-6-carboxamide], for which the IC50 under setting [2] was in the range of 200 to 2000 nM.

On to `Cc1ccc2c(N)c(C(=O)NC3COc4cc(N5CC6CCNCC65)cc(F)c4C3)sc2n1` [Example 664, 3-amino-N-[(3R)-7-[(1S,6R)-3,8-diazabicyclo[4.2.0]octan-8-yl]-5-fluoro-3,4-dihydro-2H-1-benzopyran-3-yl]-6-mcthylthicno[2,3-b]pyridinc-2-carboxamide], for which the IC50 under setting [1] lay in the range of 1 to 50 nM.

On to `CO[C@]1(C)CN(c2ccc3c(c2)OC[C@H](NC(=O)c2sc4nc(C)ccc4c2N)C3)C[C@H]1N` [Example 282, 3-amino-N-[(3R)-7-[(3R,4R)-4-amino-3-methoxy-3-methylpyrrolidin-1-yl]-3,4-dihydro-2H-1-benzopyran-3-yl]-6-methylthieno[2,3-b]pyridine-2-carboxamide], for which the IC50 (Ubiquitin-Rhodamine 110 assay, read-out: USP28 A-1(a) IC50 range) fell in the range of 200 to 2000 nM.

Consider `Cc1ccc2c(N)c(C(=O)N[C@H]3COc4nc(N5C[C@@H](N)C6(C5)OCCO6)ccc4C3)sc2n1` [Example 544, 3-amino-N-[(3R)-7-[(9R)-9-amino-1,4-dioxa-7-azaspiro[4.4]nonan-7-yl]-2H,3H,4H-pyrano[2,3-b]pyridin-3-yl]-6-methylthieno[2,3-b]pyridine-2-carboxamide], for which, under setting [1], the IC50 was 200 to 2000 nM.

In the case of `Cc1ccc2c(N)c(C(=O)N[C@H]3CCc4nc(N5C[C@@H](COC(F)(F)F)[C@@H](N)C5)ccc4C3)sc2n1` [Example 484, 3-amino-N-[(6S)-2-[(3R,4R)-3-amino-4-[(trifluoromethoxy)methyl]pyrrolidin-1-yl]-5,6,7,8-tetrahydroquinolin-6-yl]-6-methylthieno[2,3-b]pyridine-2-carboxamide], the IC50 under setting [2] was 200 to 2000 nM.

`Cc1ccc2c(N)c(C(=O)N[C@H]3CCc4nc(N5C[C@H](N)[C@@]6(CCCCO6)C5)ccc4C3)sc2n1` [Example 508, 3-amino-N-[(6S)-2-[(4S,5R)-4-amino-6-oxa-2-azaspiro[4.5]decan-2-yl]-5,6,7,8-tetrahydroquinolin-6-yl]-6-methylthieno[2,3-b]pyridine-2-carboxamide]: the IC50 under setting [2] fell in the range of 50 to 200 nM.

Take `Cc1ccc2c(N)c(C(=O)N[C@H]3CCc4nc(N5C[C@@H](N)[C@]6(C5)OCC[C@H]6C)ccc4C3)sc2n1` [Example 512, 3-amino-N-[(6S)-2-[(4R,5S,9R)-9-amino-4-methyl-1-oxa-7-azaspiro[4.4]nonan-7-yl]-5,6,7,8-tetrahydroquinolin-6-yl]-6-methylthieno[2,3-b]pyridine-2-carboxamide]: under setting [2], the IC50 was in the range of 50 to 200 nM.

For the compound `CO[C@H]1CN(c2ccc3c(n2)CC[C@H](NC(=O)c2sc4nc(C)cnc4c2N)C3)C[C@H]1N` [Example 492, 7-amino-N-[(6S)-2-[(3R,4S)-3-amino-4-methoxypyrrolidin-1-yl]-5,6,7,8-tetrahydroquinolin-6-yl]-3-methylthieno[2,3-b]pyrazine-6-carboxamide], the IC50 under setting [2] is 50 to 200 nM.

As for `CN[C@H]1CN(c2ccc3c(n2)CC[C@H](NC(=O)c2sc4nc(C)c(F)cc4c2N)C3)C[C@@H]1COC` [Example 515, 3-amino-5-fluoro-N-[(6S)-2-[(3S,4R)-3-(methoxymethyl)-4-(methylamino)pyrrolidin-1-yl]-5,6,7,8-tetrahydroquinolin-6-yl]-6-methylthieno[2,3-b]pyridine-2-carboxamide], the IC50 under setting [2] was in the range of 50 to 200 nM.
